{"source": "patent US20130096135A1", "about": "“Selected Inhibitors of Protein Tyrosine Kinase Activity” (METHYLGENE INC., priority 2011, published 2013)", "data": [{"target": "T1, VEGF receptor KDR (VEGFR2) (Homo sapiens, UniProt P35968)", "T1 construct": "made in house; host or cells: Sf9 cells (Spodoptera frugiperda), baculovirus", "T1 sequence (P35968 806-1356)": "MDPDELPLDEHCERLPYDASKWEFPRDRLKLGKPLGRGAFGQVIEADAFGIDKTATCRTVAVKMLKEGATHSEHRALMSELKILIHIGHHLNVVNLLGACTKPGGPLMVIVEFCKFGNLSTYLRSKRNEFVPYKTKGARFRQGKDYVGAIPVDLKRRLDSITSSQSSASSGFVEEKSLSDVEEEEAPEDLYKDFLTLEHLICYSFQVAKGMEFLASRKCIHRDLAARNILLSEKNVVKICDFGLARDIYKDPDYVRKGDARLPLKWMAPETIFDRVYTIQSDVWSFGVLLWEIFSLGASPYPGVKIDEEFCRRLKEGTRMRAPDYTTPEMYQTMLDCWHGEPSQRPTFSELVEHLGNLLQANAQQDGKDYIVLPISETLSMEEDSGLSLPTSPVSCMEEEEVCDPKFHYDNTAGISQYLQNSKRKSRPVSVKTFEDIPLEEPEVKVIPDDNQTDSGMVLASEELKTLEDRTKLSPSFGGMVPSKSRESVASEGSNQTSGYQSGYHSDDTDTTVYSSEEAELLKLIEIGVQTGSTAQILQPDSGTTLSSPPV", "assay": "In vitro receptor tyrosine kinase assay (VEGF receptor KDR), DELFIA", "format": "biochemical", "settings": "recombinant GST-VEGFR2 (806-1356), ATP 0.6 uM, enzyme 5 nM; read-out: VEGFR_IC50_UM", "text": "In Vitro Receptor Tyrosine Kinase Assay (VEGF receptor KDR)\nThis test measures the ability of compounds to inhibit the enzymatic activity of recombinant human VEGF receptor enzymatic activity.\nA 1.6-kb cDNA corresponding to the catalytic domain of VEGFR2 (KDR) (Genbank accession number AF035121 amino acid 806 to 1356) is cloned into the Pst I site of the pDEST20 Gateway vector (Invitrogen) for the production of a GST-tagged version of that enzyme. This construct is used to generate recombinant baculovirus using the Bac-to-Bac™ system according to the manufacturer's instructions (Invitrogen).\nThe GST-VEGFR2806-1356 protein is expressed in Sf9 cells (Spodoptera frugiperda) upon infection with recombinant baculovirus construct. Briefly, Sf9 cells grown in suspension and maintained in serum-free medium (Sf900 II supplemented with gentamycin) at a cell density of about 2×10^6 cells/ml are infected with the above-mentioned viruses at a multiplicity of infection (MOI) of 0.1 during 72 hours at 27° C. with agitation at 120 rpm on a rotary shaker. Infected cells are harvested by centrifugation at 398g for 15 min. Cell pellets are frozen at −80° C. until purification is performed.\nAll steps described in cell extraction and purification are performed at 4° C. Frozen Sf9 cell pellets infected with the GST-VEGFR2806-1356 recombinant baculovirus are thawed and gently resuspended in Buffer A (PBS pH 7.3 supplemented with 1 μg/ml pepstatin, 2 μg/ml Aprotinin and leupeptin, 50 μg/ml PMSF, 50 μg/ml TLCK and 10 μM E64 and 0.5 mM DTT) using 3 ml of buffer per gram of cells. Suspension is Dounce homogenized and 1% Triton X-100 is added to the homogenate after which it is centrifuged at 22500 g, 30 min., 4 °C. The supernatant (cell extract) is used as starting material for purification of GST-VEGFR2806-1356.\nThe supernatant is loaded onto a GST-agarose column (Sigma) equilibrated with PBS pH 7.3. Following a four column volume (CV) wash with PBS pH 7.3+1% Triton X-100 and 4 CV wash with buffer B (50mM Tris pH 8.0, 20% glycerol and 100mM NaCl), bound proteins are step eluted with 5 CV of buffer B supplemented with 5 mM DTT and 15 mM glutathion. GST-VEGFR2806-1356 enriched fractions from this chromatography step are pooled based on U.V. trace i.e. fractions with high 0.D.280. Final GST-VEGFR2806-1356 protein preparations concentrations are about 0.7 mg/ml with purity approximating 70%. Purified GST-VEGFR2806-1356 protein stocks are aliquoted and frozen at −80° C. prior to use in enzymatic assay.\nInhibition of VEGFR/KDR is measured in a DELFIATM assay (Perkin Elmer). The substrate poly(Glu4, Tyr) is immobilized onto black high-binding polystyrene 96-well plates. The coated plates are washed and stored at 4° C. During the assay, the enzyme is pre-incubated with inhibitor and Mg-ATP on ice in polypropylene 96-well plates for 4 minutes, and then transferred to the coated plates. The subsequent kinase reaction takes place at 30° C. for 10-30 minutes. ATP concentrations in the assay are 0.6 uM for VEGFR/KDR (2× the Km). Enzyme concentration is 5 nM. After incubation, the kinase reactions are quenched with EDTA and the plates are washed. Phosphorylated product is detected by incubation with Europium-labeled anti-phosphotyrosine MoAb. After washing the plates, bound MoAb is detected by time-resolved fluorescence in a Gemini SpectraMax reader (Molecular Devices). Compounds are evaluated over a range of concentrations, and IC50 values (concentration of compounds giving 50% inhibition of enzymatic activity) are determined.", "units": {"IC50": "nM"}, "values": [{"smiles": "CC(C)C(=O)OCC(=O)N1CCN(Cc2ccc(-c3cc4nccc(Oc5ccc(NC(=O)NC6CC6)cc5F)c4s3)nc2)CC1", "note": "[Compound 80, 2-(4-((6-(7-(4-(3-Cyclopropylureido)-2-fluorophenoxy)thieno[3,2-b]pyridin-2-yl)pyridin-3-yl)methul)piperazin 1-yl)-2-oxoethyl isobutrate]", "IC50": 20}, {"smiles": "COCCOCCOC(=O)N1CCN(Cc2ccc(-c3cc4nccc(Oc5ccc(NC(=O)NC6CC6)cc5F)c4s3)nc2)CC1", "note": "[Compound 75, 2-(2-Methoxyethoxy)ethyl 4-((6-(7-(4-(3-cyclopropylureido)-2-fluorophenoxy)thieno[3,2-b]pyridin-2-yl)pyridin-3-yl)methyl)piperazine-1-carboxylate]", "IC50": 16}, {"smiles": "CC(=O)SCC(=O)N1CCN(Cc2ccc(-c3cc4nccc(Oc5ccc(NC(=O)NC6CC6)cc5F)c4s3)nc2)CC1", "note": "[Compound 22, S-2-(4-((6-(7-(4-(3-Cyclopropylureido)-2-fluorophenoxy)thieno[3,2-b]pyridin-2-yl)pyridin-3-yl)methyl)piperazin-1-yl)-2-oxoethyl ethanethioate]", "IC50": 15}, {"smiles": "CNCCNC(=O)C1CCCN(Cc2ccc(-c3cc4nccc(Oc5ccc(NC(=O)NC6CC6)cc5F)c4s3)nc2)C1", "note": "(centres unmarked) [Compound 5, 1-((6-(7-(4-(3-Cyclopropylureido)-2-fluorophenoxy)thieno[3,2-b]pyridin-2-yl)pyridin-3-yl)methyl)-N-(2-(methylamino)ethyl)piperidine-3-carboxamide]", "IC50": 8}, {"smiles": "O=C(Nc1ccc(Oc2ccnc3cc(-c4ccc(CN5CCN(C(=O)CS)CC5)cn4)sc23)c(F)c1)NC1CC1", "note": "[Compound 114, 1-Cyclopropyl-3-(3-fluoro-4-(2-(5-((4-(2-mercaptoacetyl)piperazin-1-yl)methyl)pyridin-2-yl)thieno[3,2-b]pyridin-7-yloxy)phenyl)urea]", "IC50": 10}, {"smiles": "CN(C)CCNC(=O)[C@@H]1CCCN(Cc2ccc(-c3cc4nccc(Oc5ccc(NC(=O)NC6CC6)cc5F)c4s3)nc2)C1", "note": "[Compound 10, (R)-1-((6-(7-(4-(3-Cyclopropylureido)-2-fluorophenoxy)thieno[3,2-b]pyridin-2-yl)pyridin-3-yl)methyl)-N-(2-(dimethylamino)ethyl)piperidine-3-carboxamide]", "IC50": 7}, {"smiles": "O=C(Nc1ccc(Oc2ccnc3cc(-c4ccc(CN5CCCC(C(=O)NC[C@@H](O)CO)C5)cn4)sc23)c(F)c1)NC1CC1", "note": "(stereo partly drawn) [Compound 9, 1-((6-(7-(4-(3-Cyclopropylureido)-2-fluoro-phenoxy)thieno[3,2-b]pyridin-2-yl)pyridin-3-yl)methyl)-N-((R)-2,3-dihydroxypropyl)piperidine-3-carboxamide]", "IC50": 11}, {"smiles": "O=C(Nc1ccc(Oc2ccnc3cc(-c4ccc(CN5CCN(C(=O)COC(=O)CCCC[C@H]6SC[C@H]7NC(=O)N[C@H]76)CC5)cn4)sc23)c(F)c1)NC1CC1", "note": "[Compound 120, 2-(4-((6-(7-(4-(3-Cyclopropylureido)-2-fluorophenoxy)thieno[3,2-b]pyridin-2-yl)pyridin-3-yl)methyl)piperazin-1-yl)-2-oxoethyl 5-((3aR,4R,6aS)-2-oxohexahydro-1H-thieno[3,4-d]imidazol-4-yl)pentanoate]", "IC50": 21}, {"smiles": "COCCOC(=O)N1CCN(Cc2ccc(-c3cc4nccc(Oc5ccc(NC(=O)NC6CC6)cc5F)c4s3)nc2)CC1", "note": "[Compound 76, 2-Methoxyethyl 4-((6-(7-(4-(3-cyclopropylureido)-2-fluorophenoxy)thieno[3,2-b]pyridin-2-yl)pyridin-3-yl)methyl)piperazine-1-carboxylate]", "IC50": 8}, {"smiles": "COCC(=O)N1CCN(Cc2ccc(-c3cc4nccc(Oc5ccc(NC(=O)NC6CC6)cc5F)c4s3)nc2)CC1", "note": "[Compound 32, 1-Cyclopropvl-3-(3-fluoro-4-(2-(5-((4-(2-methoxyacetyl)piperazin-1-yl)methyl)pyridin-2-yl)thieno[3,2-b]pyridin-7-yloxy)phenyl)urea]", "IC50": 6}, {"smiles": "CN(C)CCNC(=O)[C@H]1CCCN(Cc2ccc(-c3cc4nccc(Oc5ccc(NC(=O)NC6CC6)cc5F)c4s3)nc2)C1", "note": "[Compound 13, (S)-1-((6-(7-(4-(3-Cyclopropylureido)-2-fluorophenoxy)thieno[3,2-b]pyridin-2-yl)pyridin-3-yl)methyl)-N-(2-(dimethylamino)ethyl)piperidine-3-carboxamide]", "IC50": 8}, {"smiles": "COCCOCCOCC(=O)NC1CCN(Cc2ccc(-c3cc4nccc(Oc5ccc(NC(=O)NC6CC6)cc5F)c4s3)nc2)CC1", "note": "[Compound 31]", "IC50": 17}, {"smiles": "C[C@@H](O)CN1CCN(Cc2ccc(-c3cc4nccc(Oc5ccc(NC(=O)NC6CC6)cc5F)c4s3)nc2)CC1", "note": "[Compound 29, (R)-1-Cyclopropyl-3-(3-fluoro-4-(2-(5-((4-(2-hydroxypropyl)piperazin-1-yl)methyl)pyridin-2-yl)thieno[3,2-b]pyridin-7-yloxy)phenyl)urea]", "IC50": 5}, {"smiles": "C[C@@H]1CN(C(=O)CO)CCN1Cc1ccc(-c2cc3nccc(Oc4ccc(NC(=O)NC5CC5)cc4F)c3s2)nc1", "note": "[Compound 26, (R)-1-Cyclopropyl-3-(3-fluoro-4-(2-(5-((4-(2-hydroxyacetyl)-2-methylpiperazin-1-yl)methyl)pyridin-2-yl)thieno[3,2-b]pyridin-7-yloxy)phenyl)urea]", "IC50": 4}, {"smiles": "CC(=O)OC(C)(C)C(=O)N1CCN(Cc2ccc(-c3cc4nccc(Oc5ccc(NC(=O)NC6CC6)cc5F)c4s3)nc2)CC1", "note": "[Compound 35, 1-(4-((6-(7-(4-(3-Cyclopropylureido)-2-fluorophenoxy)thieno[3,2-b]pyridin-2-yl)pyridin-3-yl)methyl)piperazin-1-yl)-2-methyl-1-oxopropan-2-yl acetate]", "IC50": 4}, {"smiles": "C[C@@H]1CN(Cc2ccc(-c3cc4nccc(Oc5ccc(NC(=O)NC6CC6)cc5F)c4s3)nc2)CCN1CCO", "note": "[Compound 119, (R)-1-cyclopropyl-3-(3-fluoro-4-(2-(5-((4-(2-hydroxyethyl)-3-methylpiperazin-1-yl)methyl)pyridin-2-yl)thieno[3,2-b]pyridin-7-yloxy)phenyl)urea]", "IC50": 8}, {"smiles": "CN(C)CCN(C)C(=O)C1CCCN(Cc2ccc(-c3cc4nccc(Oc5ccc(NC(=O)NC6CC6)cc5F)c4s3)nc2)C1", "note": "(centres unmarked) [Compound 4, 1-((6-(7-(4-(3-Cyclopropylureido)-2-fluorophenoxy)thieno [3,2-b]pyridin-2-yl)pyridin-3-yl)methyl)-N-(2-(dimethylamino)ethyl)-N-methylpiperidine-3-carboxamide]", "IC50": 8}, {"smiles": "CN(CCO)C(=O)[C@H]1CCCN(Cc2ccc(-c3cc4nccc(Oc5ccc(NC(=O)NC6CC6)cc5F)c4s3)nc2)C1", "note": "[Compound 11, (S)-1-((6-(7-(4-(3-Ccyclopropylureido)-2-fluorophenoxy)thieno[3,2-b]pyridin-2-yl)pyridin-3-yl)methyl)-N-(2-hydroxyethyl)-N-methylpiperidine-3-carboxamide]", "IC50": 7}, {"smiles": "CN(C)[C@H]1CCN(C(=O)C2CCCN(Cc3ccc(-c4cc5nccc(Oc6ccc(NC(=O)NC7CC7)cc6F)c5s4)nc3)C2)C1", "note": "(stereo partly drawn) [Compound 6, 1-Cyclopropyl-3-(4-(2-(5-((3-((S)-3-(dimethylamino)pyrrolidine-1-carbonyl)piperidin-1-yl)methyl)pyridin-2-yl)thieno[3,2-b]pyridin-7-yloxy)-3-fluorophenyl)urea]", "IC50": 7}, {"smiles": "O=C(Nc1ccc(Oc2ccnc3cc(-c4ccc(CN5CCCC(C(=O)N6CC[C@@H](O)C6)C5)cn4)sc23)c(F)c1)NC1CC1", "note": "(stereo partly drawn) [Compound 7, 1-Cyclopropyl-3-(3-fluoro-4-(2-(5-((3-((R)-3-hydroxypyrrolidine-1-carbonyl)piperidin-1-yl)methyl)pyridin-2-yl)thieno[3,2-b]pyridin-7-yloxy)phenyl)urea]", "IC50": 7}]}]}
